Six sequences from paper PMC2248166, “Quantitative peptide binding motifs for 19 human and mouse MHC class I molecules derived using positional scanning combinatorial peptide libraries” (Immunome Research, 2008) can be followed below.

Sequence of H-2 K^k (P01887 21-119): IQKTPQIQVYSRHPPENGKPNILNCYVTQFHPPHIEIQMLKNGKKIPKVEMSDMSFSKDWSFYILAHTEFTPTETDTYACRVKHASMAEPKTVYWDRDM
Sequence of H-2 K^k (P04223 22-369): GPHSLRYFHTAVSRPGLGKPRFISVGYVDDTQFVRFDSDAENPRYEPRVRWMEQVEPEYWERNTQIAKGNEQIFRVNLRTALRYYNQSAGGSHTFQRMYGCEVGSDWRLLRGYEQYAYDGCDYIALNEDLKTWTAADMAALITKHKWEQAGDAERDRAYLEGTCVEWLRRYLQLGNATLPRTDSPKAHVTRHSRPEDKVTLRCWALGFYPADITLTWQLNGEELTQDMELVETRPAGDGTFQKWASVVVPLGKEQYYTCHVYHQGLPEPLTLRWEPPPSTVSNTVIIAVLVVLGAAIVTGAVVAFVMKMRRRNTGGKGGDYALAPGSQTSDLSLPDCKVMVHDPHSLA
Sequence of H-2 D^b (P01887 21-119): as the sequence (P01887 21-119) above
Sequence of H-2 D^b (P01899 25-362): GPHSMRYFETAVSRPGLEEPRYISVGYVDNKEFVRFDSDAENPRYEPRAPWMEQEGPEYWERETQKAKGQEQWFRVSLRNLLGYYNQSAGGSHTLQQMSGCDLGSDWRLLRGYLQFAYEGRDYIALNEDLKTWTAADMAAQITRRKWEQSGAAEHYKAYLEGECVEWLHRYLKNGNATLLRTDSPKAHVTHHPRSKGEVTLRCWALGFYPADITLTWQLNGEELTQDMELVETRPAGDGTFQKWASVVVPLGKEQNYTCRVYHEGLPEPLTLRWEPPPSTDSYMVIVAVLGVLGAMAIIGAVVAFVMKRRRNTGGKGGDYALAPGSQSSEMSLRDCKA

One assay has as its target HLA A*6802 (Homo sapiens, UniProt P04439, A269V/D140Y/D185E/E176V/E277Q/E87N/F33Y/G231S/I121R/I166T/I218V/L180W/L300P/L318F/N151K/P208A/P217A/Q86R/R138H/R169H/S129P/T345S/V36M).
Assay: not given
The class given is binding.
XXXXXFXXX [3064.0105]: the “Normalized average relative binding affinity(ARB)” value is listed as 1.0.
Same read-out and setting: under XXXXXGXXX [3064.0106] stands 0.30; under XXXXXHXXX [3064.0107], 0.11; under XXXXXIXXX [3064.0108], 0.38.
On to XXXXXKXXX [3064.0109], for which the “Normalized average relative binding affinity(ARB)” value came out at 0.24.
The same measure, in the same setting: under XXXXXLXXX [3064.0110] stands 0.16.

The target of another assay is HLA B*5401 (Homo sapiens, UniProt P01889, A329T/C349S/D138N/D201E/E176V/E187T/E204Q/E69G/I76V/K202T/L119W/R155S/R180L/S121T/S35A/S48A/V127L/V306I/V36M/Y140L).
Assay: not given
The assay is classed as binding.
For the sequence XXXXXFXXX [3064.0105], the “Normalized average relative binding affinity(ARB)” value is on record as 0.30.
Same read-out and setting: under XXXXXGXXX [3064.0106] stands 0.14; under XXXXXHXXX [3064.0107], 1.0.
As for XXXXXIXXX [3064.0108], the “Normalized average relative binding affinity(ARB)” value is 0.81.
Same read-out and setting: under XXXXXKXXX [3064.0109] stands 0.62.
Still for that read-out and setting: under XXXXXLXXX [3064.0110] stands 0.21.

The next assay deals with HLA B*1503 (Homo sapiens, UniProt P01889, A329T/A93T/A95T/C349S/D201E/D98Y/E187L/E204Q/K202T/N87E/Q94N/R155S/R180L/S121R/S35A/V306I/V36M/Y140S/Y91S). Put plainly: biochemical. The assay is classed as binding.
Take XXXXXFXXX [3064.0105]: the “Normalized average relative binding affinity(ARB)” value is reported as 1.0.
Still for that read-out and setting: under XXXXXGXXX [3064.0106] stands 0.68; under XXXXXHXXX [3064.0107], 0.25.
Still for that read-out and setting: under XXXXXIXXX [3064.0108] stands 0.41; under XXXXXKXXX [3064.0109], 0.26; under XXXXXLXXX [3064.0110], 0.37.

The next assay addresses H-2 K^k (Mus musculus, UniProt P04223).
Assay: not given
The assay is classed as binding.
Turning to XXXXXFXXX [3064.0105], the “Normalized average relative binding affinity(ARB)” value was found to be 1.0.
Still for that read-out and setting: under XXXXXGXXX [3064.0106] stands 0.60; under XXXXXHXXX [3064.0107], 0.20; under XXXXXIXXX [3064.0108], 0.55.
Still for that read-out and setting: the same measure for XXXXXKXXX [3064.0109]: 0.34; for XXXXXLXXX [3064.0110]: 0.25.

The target of the next assay is HLA B*1501 (Homo sapiens, UniProt P01889, A329T/A93T/A95T/C349S/D201E/D98Y/E187L/E204Q/E69M/E70A/K202T/N87E/Q94N/R155S/R180W/S121R/S35A/S48A/V306I/V36M/Y140S/Y91S). The assay can be described thus: biochemical. The assay is classed as binding.
Take XXXXXFXXX [3064.0105]: the “Normalized average relative binding affinity(ARB)” value is reported as 1.0.
On the same count and under the same terms, the same measure for XXXXXGXXX [3064.0106]: 0.35.
On the same count and under the same terms, the same measure for XXXXXHXXX [3064.0107]: 0.28; for XXXXXIXXX [3064.0108]: 0.53.
On the same count and under the same terms, under XXXXXKXXX [3064.0109] stands 0.28; under XXXXXLXXX [3064.0110], 0.12.

The next assay has as its target HLA B*5801 (Homo sapiens, UniProt P01889, A329T/C349S/D201E/D98Y/E176V/E187L/E204Q/E69T/G107R/I218V/I90N/K202T/L105A/L119I/N104I/N87E/Q89R/Q94S/R106L/R155S/R180L/R86G/S101N/S121R/S35A/S48A/T118I/V127L/V306I/V36M/Y140S/Y91M).
Assay: not given
The assay is classed as binding.
As for XXXXXFXXX [3064.0105], the “Normalized average relative binding affinity(ARB)” value amounted to 0.51.
On the same count and under the same terms, the same measure for XXXXXGXXX [3064.0106]: 0.31.
Still for that read-out and setting: under XXXXXHXXX [3064.0107] stands 0.40; under XXXXXIXXX [3064.0108], 0.67.
Same read-out and setting: the same measure for XXXXXKXXX [3064.0109]: 0.13; for XXXXXLXXX [3064.0110]: 0.49.

For a further assay, the target named is H-2 K^d (Mus musculus, UniProt P01902).
Sequence of H-2 K^d (P01887 21-119): as the sequence (P01887 21-119) above
Sequence of H-2 K^d (P01902 22-368): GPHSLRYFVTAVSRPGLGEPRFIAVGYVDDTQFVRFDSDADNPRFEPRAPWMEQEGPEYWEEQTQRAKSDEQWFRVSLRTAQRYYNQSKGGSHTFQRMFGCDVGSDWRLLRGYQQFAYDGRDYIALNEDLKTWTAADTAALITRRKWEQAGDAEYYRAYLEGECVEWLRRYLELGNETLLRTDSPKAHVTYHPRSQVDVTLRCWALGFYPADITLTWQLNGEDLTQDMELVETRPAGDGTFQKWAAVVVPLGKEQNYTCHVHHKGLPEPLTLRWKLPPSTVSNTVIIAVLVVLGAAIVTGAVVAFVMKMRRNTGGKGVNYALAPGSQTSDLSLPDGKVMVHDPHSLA
Assay: not given
The assay is classed as binding.
For the sequence XXXXXFXXX [3064.0105], the “Normalized average relative binding affinity(ARB)” value turned out to be 0.39.
The same measure, in the same setting: the same measure for XXXXXGXXX [3064.0106]: 0.30.
The same measure, in the same setting: under XXXXXHXXX [3064.0107] stands 0.31; under XXXXXIXXX [3064.0108], 0.36; under XXXXXKXXX [3064.0109], 0.36.
On to XXXXXLXXX [3064.0110], for which the “Normalized average relative binding affinity(ARB)” value was found to be 0.34.

In another assay the target is HLA B*3501 (Homo sapiens, UniProt P01889, A329T/A93T/A95T/C349S/D201E/D98Y/E176V/E187L/E204Q/E69T/I218V/K202T/L119I/Q94N/R155S/R180L/S121R/S35A/S48A/T118I/V127L/V306I/V36M/Y140S/Y91F).
Assay: not given
The class given is binding.
Take XXXXXFXXX [3064.0105]: the “Normalized average relative binding affinity(ARB)” value is 1.0.
On the same count and under the same terms, under XXXXXGXXX [3064.0106] stands 0.33; under XXXXXHXXX [3064.0107], 0.26.
Regarding XXXXXIXXX [3064.0108], the “Normalized average relative binding affinity(ARB)” value is on record as 0.28.
Still for that read-out and setting: under XXXXXKXXX [3064.0109] stands 0.14; under XXXXXLXXX [3064.0110], 0.29.

The next assay has as its target H-2 D^b (Mus musculus, UniProt P01899).
Assay: not given
The assay is classed as binding.
On to XXXXXFXXX [3064.0105], for which the “Normalized average relative binding affinity(ARB)” value stood at 0.70.
On the same count and under the same terms, the same measure for XXXXXGXXX [3064.0106]: 0.76; for XXXXXHXXX [3064.0107]: 0.36; for XXXXXIXXX [3064.0108]: 0.77.
Same read-out and setting: the same measure for XXXXXKXXX [3064.0109]: 0.51; for XXXXXLXXX [3064.0110]: 0.64.

The target of the next assay is HLA B*5101 (Homo sapiens, UniProt P01889, A329T/A93T/A95T/C349S/D138N/D201E/D98Y/E187L/E204Q/E69T/G107R/I218V/K202T/L105A/L119W/N104I/Q94N/R106L/R155S/R180L/S101N/S121T/S35A/S48A/V306I/V36M/Y195H/Y91F).
Assay: not given
The class given is binding.
For XXXXXFXXX [3064.0105], the “Normalized average relative binding affinity(ARB)” value came to 1.0.
Still for that read-out and setting: the same measure for XXXXXGXXX [3064.0106]: 0.29; for XXXXXHXXX [3064.0107]: 0.33.
Still for that read-out and setting: under XXXXXIXXX [3064.0108] stands 0.74; under XXXXXKXXX [3064.0109], 0.54; under XXXXXLXXX [3064.0110], 0.55.

The target of a further assay is HLA B*0801 (Homo sapiens, UniProt P01889, A93T/A95T/D138N/E176V/E187T/K202T/Q94N/R180D/S35A/V36M/Y33D/Y91F). Put plainly: biochemical. The class given is binding.
Consider XXXXXFXXX [3064.0105], for which the “Normalized average relative binding affinity(ARB)” value was 1.0.
Same read-out and setting: under XXXXXGXXX [3064.0106] stands 0.025; under XXXXXHXXX [3064.0107], 0.12; under XXXXXIXXX [3064.0108], 0.048.
On the same count and under the same terms, the same measure for XXXXXKXXX [3064.0109]: 0.073.
Same read-out and setting: the same measure for XXXXXLXXX [3064.0110]: 0.061.

For another assay, the target named is HLA A*3001 (Homo sapiens, UniProt P04439, D140H/D185E/E176W/F33S/G80R/H175R/K168Q/R138E/R41S). Put plainly: biochemical. The assay is classed as binding.
XXXXXFXXX [3064.0105]: the “Normalized average relative binding affinity(ARB)” value stood at 1.0.
Still for that read-out and setting: under XXXXXGXXX [3064.0106] stands 0.18; under XXXXXHXXX [3064.0107], 0.16.
Same read-out and setting: under XXXXXIXXX [3064.0108] stands 0.27.
On the same count and under the same terms, under XXXXXKXXX [3064.0109] stands 0.10.
As to XXXXXLXXX [3064.0110], the “Normalized average relative binding affinity(ARB)” value came out at 0.28.

A further assay deals with HLA B*5301 (Homo sapiens, UniProt P01889, A329T/A93T/A95T/C349S/D201E/D98Y/E176V/E187L/E204Q/E69T/G107R/I218V/K202T/L105A/L119I/N104I/Q94N/R106L/R155S/R180L/S101N/S121R/S35A/S48A/T118I/V127L/V306I/V36M/Y140S/Y91F).
Assay: not given
The assay is classed as binding.
On to XXXXXFXXX [3064.0105], for which the “Normalized average relative binding affinity(ARB)” value was determined as 0.86.
For the sequence XXXXXGXXX [3064.0106], the “Normalized average relative binding affinity(ARB)” value is given as 0.22.
For the sequence XXXXXHXXX [3064.0107], the “Normalized average relative binding affinity(ARB)” value turned out to be 0.30.
On the same count and under the same terms, under XXXXXIXXX [3064.0108] stands 0.41; under XXXXXKXXX [3064.0109], 0.15; under XXXXXLXXX [3064.0110], 0.18.

For another assay, the target named is H-2 D^d (Mus musculus, UniProt P01900).
Sequence of H-2 D^d (P01900 whole entry, looked up): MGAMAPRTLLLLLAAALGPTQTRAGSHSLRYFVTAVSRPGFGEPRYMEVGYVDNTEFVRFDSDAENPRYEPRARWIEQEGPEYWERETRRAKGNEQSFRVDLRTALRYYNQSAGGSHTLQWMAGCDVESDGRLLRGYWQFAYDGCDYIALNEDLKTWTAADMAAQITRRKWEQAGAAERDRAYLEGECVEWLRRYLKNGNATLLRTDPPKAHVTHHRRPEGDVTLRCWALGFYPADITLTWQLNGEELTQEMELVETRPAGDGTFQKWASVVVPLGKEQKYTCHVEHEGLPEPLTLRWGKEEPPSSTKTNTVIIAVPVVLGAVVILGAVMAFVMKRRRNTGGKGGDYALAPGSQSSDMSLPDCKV
Assay: not given
The class given is binding.
Take XXXXXFXXX [3064.0105]: the “Normalized average relative binding affinity(ARB)” value was 0.79.
Same read-out and setting: the same measure for XXXXXGXXX [3064.0106]: 0.48; for XXXXXHXXX [3064.0107]: 0.48; for XXXXXIXXX [3064.0108]: 0.46.
Regarding XXXXXKXXX [3064.0109], the “Normalized average relative binding affinity(ARB)” value amounted to 0.30.
On the same count and under the same terms, the same measure for XXXXXLXXX [3064.0110]: 0.54.

Another assay has as its target HLA A*3201 (Homo sapiens, UniProt P04439, A270S/D101S/D185E/E176V/E277Q/F133L/G103R/G107R/G231S/H175R/I121M/I218V/I322F/K168Q/L105A/L300P/L318F/M331R/P208A/P217A/Q94H/R106L/R138Q/S129P/T104I/T323A/T345S/V100E/V321M/V358M). Put plainly: biochemical. The class given is binding.
XXXXXFXXX [3064.0105]: the “Normalized average relative binding affinity(ARB)” value worked out at 0.90.
Turning to XXXXXGXXX [3064.0106], the “Normalized average relative binding affinity(ARB)” value came to 0.22.
On the same count and under the same terms, under XXXXXHXXX [3064.0107] stands 0.50; under XXXXXIXXX [3064.0108], 0.83.
On the same count and under the same terms, the same measure for XXXXXKXXX [3064.0109]: 0.30; for XXXXXLXXX [3064.0110]: 0.33.

The next assay addresses HLA B*5802 (Homo sapiens, UniProt P01889, A329T/C349S/D201E/D98Y/E176V/E187L/E204Q/E69T/G107R/I218V/I90N/K202T/L105A/N104I/N87E/Q89R/Q94S/R106L/R155S/R180L/R86G/S101N/S121W/S35A/S48A/V127L/V306I/V36M/Y140S/Y91M).
Assay: not given
The assay is classed as binding.
On to XXXXXFXXX [3064.0105], for which the “Normalized average relative binding affinity(ARB)” value came out at 0.36.
On the same count and under the same terms, the same measure for XXXXXGXXX [3064.0106]: 0.16.
Turning to XXXXXHXXX [3064.0107], the “Normalized average relative binding affinity(ARB)” value is reported as 0.27.
Take XXXXXIXXX [3064.0108]: the “Normalized average relative binding affinity(ARB)” value worked out at 0.072.
As for XXXXXKXXX [3064.0109], the “Normalized average relative binding affinity(ARB)” value was 0.21.
Still for that read-out and setting: the same measure for XXXXXLXXX [3064.0110]: 0.31.
